In ChEMBL document CHEMBL6109139, “Rational Design of the First Dual Agonist at Trace Amine-Associated Receptor 1 and 5-HT2C Receptors Based on Binding Pocket Similarity for the Treatment of Schizophrenia and Alzheimer's Disease-Related Psychosis” (J Med Chem, 2025):
The source made the active and inactive calls. The rule behind the calls is not given here.

How the values were obtained:
[1] = target: 5-hydroxytryptamine receptor 2C (Rattus norvegicus) (UniProt P08909); assay: Agonist activity at rat 5-HT2CR by measuring maximum efficacy relative to control; type: functional; conditions: filed as agonist
[2] = target: T1, Trace amine-associated receptor 1 (Homo sapiens) (UniProt Q96RJ0); assay: Agonist activity at human TAAR1 extracted from CHO-K1 cell membrane coexpressing AGTRL1/Gi by measuring maximum efficacy at 0 to 100 uM by cAMP assay relative to control; type: functional, cell membranes; conditions: dose 0-100 µM
T1 sequence (whole entry): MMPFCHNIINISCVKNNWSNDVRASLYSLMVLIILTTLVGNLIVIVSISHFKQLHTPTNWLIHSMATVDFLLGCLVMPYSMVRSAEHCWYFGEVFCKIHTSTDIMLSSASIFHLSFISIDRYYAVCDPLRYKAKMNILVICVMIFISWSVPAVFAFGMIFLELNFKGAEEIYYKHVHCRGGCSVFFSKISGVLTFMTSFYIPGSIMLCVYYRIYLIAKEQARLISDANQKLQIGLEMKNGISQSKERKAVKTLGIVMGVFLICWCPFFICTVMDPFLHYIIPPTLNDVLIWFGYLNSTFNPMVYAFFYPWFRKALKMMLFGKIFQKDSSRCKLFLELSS

[3] = target: Trace amine-associated receptor 1 (Rattus norvegicus, UniProt Q923Y9); assay: Agonist activity at rat TAAR1; type: functional
[4] = target: Trace amine-associated receptor 1 (Rattus norvegicus) (UniProt Q923Y9); assay: Agonist activity at rat TAAR1 by measuring maximum efficacy relative to control; type: functional; conditions: filed as agonist
[5] = target: T2, Trace amine-associated receptor 1 (Homo sapiens, UniProt Q96RJ0); assay: Agonist activity at human TAAR1 extracted from CHO-K1 cell membrane coexpressing AGTRL1/Gi by cAMP assay; type: functional, cell membranes
T2 sequence (Q96RJ0 whole entry): T1 sequence (whole entry)

[6] = target: Trace amine-associated receptor 1 (Mus musculus) (UniProt Q923Y8); assay: Agonist activity at mouse TAAR1 by measuring maximum efficacy relative to control; type: functional; conditions: filed as agonist
[7] = target: Trace amine-associated receptor 1 (Mus musculus, UniProt Q923Y8); assay: Agonist activity at mouse TAAR1; type: functional
[8] = target: T3, 5-hydroxytryptamine receptor 2C (Homo sapiens) (UniProt P28335); assay: Partial agonist activity at recombinant human 5-HT2CR expressed in HEK293 cells incubated for 2 hrs by measuring maximum efficacy by FLIPR calcium assay relative to control; type: functional, cell-based; conditions: filed as partial agonist
T3 sequence (whole entry): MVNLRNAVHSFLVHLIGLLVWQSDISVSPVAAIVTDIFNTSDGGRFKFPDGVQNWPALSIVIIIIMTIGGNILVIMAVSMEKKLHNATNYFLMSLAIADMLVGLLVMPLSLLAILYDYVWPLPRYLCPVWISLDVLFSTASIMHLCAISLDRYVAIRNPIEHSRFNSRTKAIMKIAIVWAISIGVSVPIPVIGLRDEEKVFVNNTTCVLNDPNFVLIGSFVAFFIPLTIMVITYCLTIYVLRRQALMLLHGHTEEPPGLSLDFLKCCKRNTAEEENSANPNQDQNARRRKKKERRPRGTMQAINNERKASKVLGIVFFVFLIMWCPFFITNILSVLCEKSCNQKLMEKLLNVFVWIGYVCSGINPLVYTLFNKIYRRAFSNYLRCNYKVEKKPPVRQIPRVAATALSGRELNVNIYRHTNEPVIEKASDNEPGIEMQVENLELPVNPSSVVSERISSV

Mus musculus [9] = assay: Antipsychotic activity against MK-801 induced hypermobilization in male C57BL/6J mouse model assessed as reduction in hypermobilization state at 3 mg/kg, IG pretreated with compound followed by MK-801 addition and measured after 30 mins by open field test; type: functional, organism-based
Mus musculus [10] = species: Mus musculus; assay: Antipsychotic activity against MK-801 induced hyperlocomotion in male C57BL/6J mouse model assessed as effective dose; type: functional
[11] = target: T4, 5-hydroxytryptamine receptor 2C (Homo sapiens, UniProt P28335); assay: Agonist activity at recombinant human 5-HT2CR expressed in HEK293 cells incubated for 2 hrs by FLIPR calcium assay; type: functional, cell-based
T4 sequence (P28335 whole entry): T3 sequence (whole entry)

[12] = target: T3, 5-hydroxytryptamine receptor 2C (Homo sapiens); assay: Agonist activity at recombinant human 5-HT2CR expressed in HEK293 cells incubated for 2 hrs by measuring maximum efficacy by FLIPR calcium assay relative to control; type: functional, cell-based
Mus musculus [13] = assay: Antipsychotic activity in amyloid beta(1 to 42) induced cognitive impairment in mouse model assessed as reduction in exploration time at 1 mg/kg, IG measured after 24 hrs by novel object recognition test; type: functional, organism-based
Mus musculus [14] = assay: Antipsychotic activity against DOI-induced head-twitch response in mouse assessed as reduction in head-twitch response at 10 mg/kg, IG measured for 30 mins; type: functional, organism-based
Mus musculus [15] = assay: Antipsychotic activity in amyloid beta (1 to 42) induced hyperlocomotion in mouse model assessed as decrease in total distance traveled at 10 mg/kg by open field test; type: functional, organism-based
Mus musculus [16] = assay: Antipsychotic activity in amyloid beta(1 to 42) induced cognitive impairment in mouse model assessed as increase in discrimination ratio of novel objects at 1 mg/kg, IG measured after 24 hrs by novel object recognition test; type: functional, organism-based

Sequence of 5-hydroxytryptamine receptor 2C (Rattus norvegicus) (P08909 whole entry): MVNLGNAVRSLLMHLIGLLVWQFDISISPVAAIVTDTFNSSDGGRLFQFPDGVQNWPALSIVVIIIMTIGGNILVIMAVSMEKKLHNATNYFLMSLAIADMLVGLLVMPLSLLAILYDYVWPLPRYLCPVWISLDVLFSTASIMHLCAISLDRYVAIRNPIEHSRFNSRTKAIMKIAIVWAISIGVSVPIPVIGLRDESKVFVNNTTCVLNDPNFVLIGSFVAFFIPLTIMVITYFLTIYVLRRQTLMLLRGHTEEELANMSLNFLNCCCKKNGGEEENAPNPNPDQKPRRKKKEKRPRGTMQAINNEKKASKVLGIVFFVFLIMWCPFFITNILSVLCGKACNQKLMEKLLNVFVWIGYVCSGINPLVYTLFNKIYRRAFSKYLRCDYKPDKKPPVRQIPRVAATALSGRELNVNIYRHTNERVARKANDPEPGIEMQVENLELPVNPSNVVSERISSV
Sequence of Trace amine-associated receptor 1 (Mus musculus, UniProt Q923Y8) (Q923Y8 whole entry): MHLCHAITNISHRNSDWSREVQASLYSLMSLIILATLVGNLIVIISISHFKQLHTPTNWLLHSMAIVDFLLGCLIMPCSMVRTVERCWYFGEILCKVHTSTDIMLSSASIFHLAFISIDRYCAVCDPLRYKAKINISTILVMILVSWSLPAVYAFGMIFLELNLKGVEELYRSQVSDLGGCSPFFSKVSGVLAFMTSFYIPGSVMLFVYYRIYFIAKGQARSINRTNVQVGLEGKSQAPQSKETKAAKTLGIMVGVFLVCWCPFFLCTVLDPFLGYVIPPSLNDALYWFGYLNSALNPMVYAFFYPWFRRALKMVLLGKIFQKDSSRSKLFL
Sequence of Trace amine-associated receptor 1 (Mus musculus) (Q923Y8 whole entry): as above
Sequence of Trace amine-associated receptor 1 (Rattus norvegicus) (Q923Y9 whole entry): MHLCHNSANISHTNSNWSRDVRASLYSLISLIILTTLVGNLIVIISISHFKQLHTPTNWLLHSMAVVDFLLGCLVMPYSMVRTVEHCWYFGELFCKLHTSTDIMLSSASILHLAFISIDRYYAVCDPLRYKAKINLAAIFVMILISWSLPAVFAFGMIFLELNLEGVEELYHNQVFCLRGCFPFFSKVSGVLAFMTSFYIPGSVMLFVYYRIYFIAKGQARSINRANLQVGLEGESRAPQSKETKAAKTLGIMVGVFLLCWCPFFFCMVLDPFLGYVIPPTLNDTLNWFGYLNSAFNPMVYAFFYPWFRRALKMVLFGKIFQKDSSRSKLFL
Sequence of Trace amine-associated receptor 1 (Rattus norvegicus, UniProt Q923Y9) (Q923Y9 whole entry): as above

Structure (SMILES)	Emax ([2]; filed as agonist) [%]	EC50 [5] [µM]	other results
NCCc1c[nH]c2ccc(O)cc12			Emax [1]: 102%
CCCN1CCc2ccsc2C1CN (stereo in doubt; 19a) [listing 1 of 2 here]			Emax [2]: 35.7%
NCCc1ccc(O)cc1 [TYRAMINE]	103	0.93	EC50 [3]: 0.228 µM; Emax [4]: 99%; Emax [6]: 103%; EC50 [7]: 0.85 µM
Fc1ccc(C2CNCCO2)s1 (racemic)	80.8		
COc1ccc(C2CNCCO2)s1 (stereo in doubt; 27a) [listing 1 of 2 here]	69		
c1cc2c(o1)C1CNCCN1CC2 (stereo in doubt; 22a) [listing 1 of 2 here]		0.036	
CC(=O)c1ccsc1C1CNCCO1 (stereo in doubt; 36a) [listing 1 of 2 here]			Emax [2]: 2.04%
COc1csc(C2CNCCO2)c1 (stereo in doubt; 26a) [listing 1 of 2 here]	63.8		
c1cc2c(o1)C1CNCCN1CC2 (stereo in doubt; 22b) [listing 1 of 2 here]		0.776	
c1cc2c(o1)C1CNCCN1CC2 (stereo in doubt; 22a) [listing 2 of 2 here]	95.6		
CNCC1OC(COC)Cc2ccsc21 (racemic)	64	38	
COc1csc(C2CNCCO2)c1 (stereo in doubt; 26a) [listing 2 of 2 here]		23.6	
COc1ccsc1C1CNCCO1 (stereo in doubt; 25a)	94.1		Emax [8]: 68.3%; Activity (Mus musculus [9]): Active; Similar Effect Compared To Ulotaront
COc1csc(C2CNCCO2)c1 (stereo in doubt; 26b) [listing 1 of 2 here]	85.6		
c1ccc2c(c1)CCN1CCNCC21 (racemic) [AZAQUINZOLE]		41.7	Emax [2]: 37.2%
COc1ccc(C2CNCCO2)s1 (stereo in doubt; 27b) [listing 1 of 2 here]	96.9		
CNCC1OC(C)(C)Cc2ccsc21 (racemic)	99.6		
CCCN1CCc2ccsc2C1CN (stereo in doubt; 19b) [listing 1 of 2 here]		6.93	
CCc1[nH]nc(C(=O)Nc2ccc([C@H]3CNCCO3)cc2)c1C [RALMITARONT]	66		ED50 (Mus musculus [10]): < 400 mg/kg; EC50 [11]: > 100 µM; Emax [12]: 0.13%
CC1(c2cccs2)CNCCO1 (racemic)	92.6	20.7	
CNCC1OCCc2ccoc21 (racemic)	105		
c1cc2c(s1)CCN1CCNCC21 (stereo in doubt; 23b) [listing 1 of 2 here]		1.03	

Structure (SMILES)	Emax ([2]; filed as agonist) [%]	EC50 [5] [µM]	other results
CNCC1NCCc2ccsc21 (stereo in doubt; 17a) [listing 1 of 2 here]		42.1	
c1csc([C@@H]2CNCCO2)c1	80.1		EC50 [11]: 3.49 µM; Emax ([12]; filed as agonist): 101%
COc1ccccc1C1CNCCO1 (racemic)	79	1.39	
CNCC1NCCc2ccsc21 (stereo in doubt; 17a) [listing 2 of 2 here]			Emax [2]: 33.8%
CNCC1OCC(C)(C)c2ccsc21 (racemic)	53.3	24.1	
c1ccc2sc(C3CNCCO3)cc2c1 (racemic)	72.1	4.35	
COc1ccsc1C1CNCCO1 (stereo in doubt; 25b)	76.4		
OCC1OCCc2ccsc21 (stereo in doubt; 15b)			Emax [2]: 2.72%
CCCN1CCc2ccsc2C1CN (stereo in doubt; 19b) [listing 2 of 2 here]			Emax [2]: 34.3%
CCCCCN1CCc2ccsc2C1CN (stereo in doubt; 20a) [listing 1 of 2 here]		> 30	
CC(C)Oc1ccsc1C1CNCCO1 (racemic)		> 100	Emax [2]: 18.1%
CCCCCN1CCc2ccsc2C1CN (stereo in doubt; 20a) [listing 2 of 2 here]			Emax [2]: 0%
CNCC1SCCc2ccsc21 (stereo in doubt; 16b) [listing 1 of 2 here]	74.6		
CNCC1SCCc2ccsc21 (stereo in doubt; 16a) [listing 1 of 2 here]		20.7	
Fc1ccsc1C1CNCCO1 (racemic)	100	0.252	
OCC1OCCc2ccsc21 (stereo in doubt; 15a) [listing 1 of 2 here]		> 100	
CC(=O)c1ccsc1C1CNCCO1 (stereo in doubt; 36a) [listing 2 of 2 here]		> 100	
CNCC1NCCc2ccsc21 (stereo in doubt; 17b) [listing 1 of 2 here]	61.2		
Fc1csc(C2CNCCO2)c1 (racemic)	107		
CNCC1NCCc2ccsc21 (stereo in doubt; 17b) [listing 2 of 2 here]		7.96	
O=c1ccc2ccc(OCCCCN3CCN(c4cccc5sccc45)CC3)cc2[nH]1			Activity (Mus musculus [13]): Active; Activity (Mus musculus [14]): Active; Activity (Mus musculus [15]): Active; Activity (Mus musculus [16]): inactive
CN1CCc2ccsc2C1CN (stereo in doubt; 18b)	96.5		

Structure (SMILES)	Emax ([2]; filed as agonist) [%]	EC50 [5] [µM]	other results
c1cc(C2CC2)c(C2CNCCO2)s1 (racemic)	98.6		
FCCOc1ccsc1C1CNCCO1 (racemic)	46.7		
CC(=O)c1ccsc1C1CNCCO1 (stereo in doubt; 36b) [listing 1 of 2 here]		15.2	
CCCCCN1CCc2ccsc2C1CN (stereo in doubt; 20b)			Emax [2]: 15.6%
c1cc2c(s1)CCN1CCNCC21 (stereo in doubt; 23b) [listing 2 of 2 here]	77		
c1csc(C2CNCO2)c1 (racemic)	97	6.4	
FC(F)(F)COc1ccsc1C1CNCCO1 (racemic)	97.7		
COc1ccc(C2CNCCO2)s1 (stereo in doubt; 27a) [listing 2 of 2 here]		37.5	
CCCN1CCc2ccsc2C1CN (stereo in doubt; 19a) [listing 2 of 2 here]		7.97	
c1cc2c(o1)C1CNCCN1CC2 (stereo in doubt; 22b) [listing 2 of 2 here]	94.3		
FC(F)COc1ccsc1C1CNCCO1 (racemic)	75.2	32.4	
CN1CCc2ccsc2C1CN (stereo in doubt; 18a) [listing 1 of 2 here]		> 100	
c1cc2c(s1)CCN1CCNCC21 (stereo in doubt; 23a) [listing 1 of 2 here]		14.2	
CN1CCc2ccsc2C1CN (stereo in doubt; 18a) [listing 2 of 2 here]			Emax [2]: 18.9%
COc1csc(C2CNCCO2)c1 (stereo in doubt; 26b) [listing 2 of 2 here]		2.16	
CNCC1SCCc2ccsc21 (stereo in doubt; 16b) [listing 2 of 2 here]		0.522	
c1cc2c(s1)CCN1CCNCC21 (stereo in doubt; 23a) [listing 2 of 2 here]	51		
CNCC1SCCc2ccsc21 (stereo in doubt; 16a) [listing 2 of 2 here]			Emax [2]: 37.4%
COc1ccc(C2CNCCO2)s1 (stereo in doubt; 27b) [listing 2 of 2 here]		1.59	
OCC1OCCc2ccsc21 (stereo in doubt; 15a) [listing 2 of 2 here]			Emax [2]: 1.94%
CC(=O)c1ccsc1C1CNCCO1 (stereo in doubt; 36b) [listing 2 of 2 here]	41.7		
